In assay [1] the target is T1, HDAC8 (Homo sapiens, UniProt Q9BY41).
T1 sequence (Q9BY41 1-377): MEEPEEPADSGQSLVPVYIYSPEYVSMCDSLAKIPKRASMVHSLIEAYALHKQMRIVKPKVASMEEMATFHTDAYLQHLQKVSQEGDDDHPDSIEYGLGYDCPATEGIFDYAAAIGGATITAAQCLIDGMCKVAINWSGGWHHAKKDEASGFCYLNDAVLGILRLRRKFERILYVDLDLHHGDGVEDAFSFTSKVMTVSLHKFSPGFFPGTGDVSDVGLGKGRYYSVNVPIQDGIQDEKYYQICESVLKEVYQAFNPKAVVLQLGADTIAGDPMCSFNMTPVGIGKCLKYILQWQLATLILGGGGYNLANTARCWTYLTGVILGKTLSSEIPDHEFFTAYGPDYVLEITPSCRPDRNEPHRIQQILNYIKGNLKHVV
As to the kind of experiment: In vitro HDAC8 deacetylase inhibition assay.
Procedure: After a following incubation at 37 °C for 20 min, the fluorescence was measured on a Synergy H1 Platereader (BioTek, USA) with an excitation wavelength of 370 nm and an emission wavelength of 460 nm. Nonlinear regression was used for the determination of the IC50 of each compound.

The next assay deals with HCT116 cells. As to the kind of experiment: Cell viability MTS assay, HCT116. It counts as cell-based. Conditions: Homo sapiens, HCT-116, 72 h, read-out: IC50 antiproliferative, HCT116. Here is the method:
(§1) MTS assay was used to measure the cell viability. For single treatment, Jurkat, THP-1 and HEL (8000 cells/well), HCT116 and A549 (2000 cells/well) were seeded in 96-well plates in 100 μL complete medium. After overnight incubation, 50 μL of media containing various concentrations of compounds or the vehicle were added to each well. For cotreatment, cells were seeded in 96-well plates in 50 μL complete medium. After overnight incubation, 50 μL of Z-VAD-FMK, Nec-1, Fer-1, CQ, and other indicated compounds were added to each well. One hour later, 50 μL of media containing various concentrations of compounds were added to each well. After 72 h of treatment, 20 μL of CellTiter 96 AQueous One Solution reagent (Promega, Madison, USA) was added to each well according to manufacturer’s protocol. Plates were incubated at 37 °C for 1–2 h. The absorbance was determined at a wavelength of 490 nm using a Synergy H1 plate reader (Biotek, Winooski, VT, USA).

The subject of another assay is Jurkat cells. The assay can be described thus: Cell viability MTS assay, Jurkat. The assay is classed as cell-based. As to conditions: for IC50: Homo sapiens, Jurkat, 72 h, MTS assay, read-out: IC50 antiproliferative, Jurkat. Here is the method:
as §1

The subject of the next assay is A549 cells. As to the kind of experiment: Cell viability MTS assay, A549. Conditions: Homo sapiens, 72 h, read-out: IC50 antiproliferative, A549. The assay is classed as cell-based. The procedure:
as §1

In assay [2] the target is T1, HDAC8. The assay can be described thus: HDAC8 degradation in Jurkat cells, Western blot. As to conditions: for inhibition at 0.1 µM / Dmax: Jurkat; for inhibition at 0.1 µM: read-out: Degradation (%) at 100 nM (HDAC8); for Dmax: read-out: Dmax (HDAC8 degradation); for DC50: read-out: DC50 (HDAC8 degradation).
The next assay concerns THP-1 cells. As to the kind of experiment: Cell viability MTS assay, THP-1. It counts as cell-based. Conditions: Homo sapiens, 72 h, read-out: IC50 antiproliferative, THP-1. The procedure: as §1
For assay [3], the target named is T1, HDAC8. The arrangement: endogenous in cells; host or cells: HCT116; method as in PMID 35759908. Conditions: HCT116 cells; cited from earlier work.

Read-outs that look alike come from different tables or passages of the source. Some results are limits rather than exact numbers.

With `CCCCCCNNC(=O)c1ccc(CNC(=O)CN2CCC(c3ccc(NC(C)=O)cc3)CC2)cc1` [Compound 32, 2-(4-(4-Acetamidophenyl)piperidin-1-yl)-N-(4-(2-hexylhydrazine-1-carbonyl)benzyl)acetamide], the concentration for half-maximal inhibition (IC50) against HDAC8 [1] is 16.6 ± 2.8 µM; with HCT116 cells, 2.8 ± 0.3 µM; with Jurkat cells, 3 ± 0.3 µM; with A549 cells, 12 ± 1.6 µM; in the assay with THP-1 cells it was 3.4 ± 0.6 µM. Further, the “HDAC8 degradation by control compounds (in words)” value at HDAC8 [2] (Jurkat cells, 6 h) is reported as “Neither NC-Z16 nor 32 induced HDAC8 degradation”.
Take `COc1ccc(Cn2ccc3ccc(C(=O)NO)cc32)cc1` [PCI-34051]: the half-inhibitory concentration (IC50) in the assay on HCT116 cells was 21.9 ± 2.8 µM; in the assay with Jurkat cells, 4.5 ± 0.7 µM; in the assay with A549 cells it was more than 33.3 µM; in the assay on THP-1 cells it was more than 33.3 µM. Moreover, in the assay on Jurkat cells (Jurkat pretreated with 50 nM Z16 for 2 h, then 72 h, MTS), the “decreased antiproliferative potency after Z16 pretreatment compared to single treatment” value is given as “about 5 fold”.
On to `O=C(CCCCOc1cccc(CCNC(=O)c2cccc(C(=O)NO)c2)c1)NCCCCCCNc1cccc2c1C(=O)N(C1CCC(=O)NC1=O)C2=O` (stereo not drawn) [PROTAC 2], for which, at HDAC8 [3], the DC50 is 0.147 µM.
On to `Nc1cccc2c1C(=O)N(C1CCC(=O)NC1=O)C2=O` (stereo not drawn) [Poma, pomalidomide], for which the IC50 with HCT116 cells, in the assay with Jurkat cells, with A549 cells and in the assay on THP-1 cells was more than 33.3 µM throughout.
Turning to `CCCCCCNNC(=O)c1ccc(CNC(=O)CCCNc2cccc3c2C(=O)N(C2CCC(=O)NC2=O)C3=O)cc1` (stereo not drawn) [Z1, 4-((2-(2,6-Dioxopiperidin-3-yl)-1,3-dioxoisoindolin-4-yl)amino)-N-(4-(2-hexylhydrazine-1-carbonyl)benzyl)butanamide], the inhibition at 0.1 µM at HDAC8 [2] (6 h) came out at 73 ± 1%.
For `CCCCCCNNC(=O)c1ccc(CNC(=O)CCCCNc2cccc3c2C(=O)N(C2CCC(=O)NC2=O)C3=O)cc1` (stereo not drawn) [Z2, 5-((2-(2,6-Dioxopiperidin-3-yl)-1,3-dioxoisoindolin-4-yl)amino)-N-(4-(2-hexylhydrazine-1-carbonyl)benzyl)pentanamide], on HDAC8 [2] (6 h), the inhibition at 0.1 µM was 62 ± 2%.
Take `CCCCCCNNC(=O)c1ccc(CNC(=O)CCCCCNc2cccc3c2C(=O)N(C2CCC(=O)NC2=O)C3=O)cc1` (stereo not drawn) [Z3, 6-((2-(2,6-Dioxopiperidin-3-yl)-1,3-dioxoisoindolin-4-yl)amino)-N-(4-(2-hexylhydrazine-1-carbonyl)benzyl)hexanamide]: at HDAC8 [2] (6 h), the inhibition at 0.1 µM is 44 ± 13%.
Take `CCCCCCNNC(=O)c1ccc(CNC(=O)CCCCCCNc2cccc3c2C(=O)N(C2CCC(=O)NC2=O)C3=O)cc1` (stereo not drawn) [Z4, 7-((2-(2,6-Dioxopiperidin-3-yl)-1,3-dioxoisoindolin-4-yl)amino)-N-(4-(2-hexylhydrazine-1-carbonyl)benzyl)heptanamide]: the inhibition at 0.1 µM on HDAC8 [2] (6 h) amounted to 90 ± 10%. Moreover, the Dmax at HDAC8 [2] was found to be 88%. Moreover, at HDAC8 [2] (Jurkat cells, 6 h), the DC50 was 0.0167 µM.
Turning to `CCCCCCNNC(=O)c1ccc(CNC(=O)CCCCCCCNc2cccc3c2C(=O)N(C2CCC(=O)NC2=O)C3=O)cc1` (stereo not drawn) [Z5, 8-((2-(2,6-Dioxopiperidin-3-yl)-1,3-dioxoisoindolin-4-yl)amino)-N-(4-(2-Hexylhydrazine-1-carbonyl)benzyl)octanamide], on HDAC8 [2] (6 h), the inhibition at 0.1 µM was determined as 43 ± 17%.
Same read-out and setting: then `CCCCCCNNC(=O)c1ccc(CNC(=O)CCCCCCCCCNc2cccc3c2C(=O)N(C2CCC(=O)NC2=O)C3=O)cc1` (stereo not drawn) [Z6, 10-((2-(2,6-Dioxopiperidin-3-yl)-1,3-dioxoisoindolin-4-yl)amino)-N-(4-(2-hexylhydrazine-1-carbonyl)benzyl)decanamide], with 43 ± 3%.
As for `CCCCCCNNC(=O)c1ccc(CNC(=O)CCCCCCCCCCCNc2cccc3c2C(=O)N(C2CCC(=O)NC2=O)C3=O)cc1` (stereo not drawn) [Z7, 12-((2-(2,6-Dioxopiperidin-3-yl)-1,3-dioxoisoindolin-4-yl)amino)-N-(4-(2-Hexylhydrazine-1-carbonyl)benzyl)dodecanamide], the “Degradation (%) at 100 nM (HDAC8)” value at HDAC8 [2] (Jurkat cells, 100 nM, 6 h, Western blot, n.d = no degradation) was “did not trigger visible degradation”.
Regarding `CCCCCCNNC(=O)c1ccc(CNC(=O)CCC(=O)N[C@H](C(=O)N2C[C@H](O)C[C@H]2C(=O)NCc2ccc(-c3scnc3C)cc2)C(C)(C)C)cc1` [Z8, N^1-(4-(2-Hexylhydrazine-1-carbonyl)benzyl)-N^4-((S)-1-((2S,4R)-4-hydroxy-2-((4-(4-methylthiazol-5-yl)benzyl)carbamoyl)pyrrolidin-1-yl)-3,3-dimethyl-1-oxobutan-2-yl)succinimide], at HDAC8 [2] (6 h), the inhibition at 0.1 µM was found to be 20 ± 1%.
Same read-out and setting: for `CCCCCCNNC(=O)c1ccc(CNC(=O)CCCCC(=O)N[C@H](C(=O)N2C[C@H](O)C[C@H]2C(=O)NCc2ccc(-c3scnc3C)cc2)C(C)(C)C)cc1` [Z9, N^1-(4-(2-Hexylhydrazine-1-carbonyl)benzyl)-N^6-((S)-1-((2S,4R)-4-hydroxy-2-((4-(4-methylthiazol-5-yl)benzyl)carbamoyl)pyrrolidin-1-yl)-3,3-dimethyl-1-oxobutan-2-yl)adipamide] the value was 17 ± 8%; for `CCCCCCNNC(=O)c1ccc(CNC(=O)CCCCCCC(=O)N[C@H](C(=O)N2C[C@H](O)C[C@H]2C(=O)NCc2ccc(-c3scnc3C)cc2)C(C)(C)C)cc1` [Z10, N^1-(4-(2-Hexylhydrazine-1-carbonyl)benzyl)-N^8-((S)-1-((2S,4R)-4-hydroxy-2-((4-(4-methylthiazol-5-yl)benzyl)carbamoyl)pyrrolidin-1-yl)-3,3-dimethyl-1-oxobutan-2-yl)octanediamide], 14 ± 5%; for `CCCCCCNNC(=O)c1ccc(CNC(=O)CCCCCCCC(=O)N[C@H](C(=O)N2C[C@H](O)C[C@H]2C(=O)NCc2ccc(-c3scnc3C)cc2)C(C)(C)C)cc1` [Z11, N^1-(4-(2-Hexylhydrazine-1-carbonyl)benzyl)-N^9-((S)-1-((2S,4R)-4-hydroxy-2-((4-(4-methylthiazol-5-yl)benzyl)carbamoyl)pyrrolidin-1-yl)-3,3-dimethyl-1-oxobutan-2-yl)nonanediamide], 48 ± 4%.
Consider `CCCCCCNNC(=O)c1ccc(CNC(=O)CCCCCCCCC(=O)N[C@H](C(=O)N2C[C@H](O)C[C@H]2C(=O)NCc2ccc(-c3scnc3C)cc2)C(C)(C)C)cc1` [Z12, N^1-(4-(2-Hexylhydrazine-1-carbonyl)benzyl)-N^10-((S)-1-((2S,4R)-4-hydroxy-2-((4-(4-methylthiazol-5-yl)benzyl)carbamoyl)pyrrolidin-1-yl)-3,3-dimethyl-1-oxobutan-2-yl)decanediamide], for which the inhibition at 0.1 µM at HDAC8 [2] (6 h) was 83 ± 2%. Moreover, the Dmax on HDAC8 [2] is 93%. At HDAC8 [2] (Jurkat cells, 6 h), the DC50 was 0.0621 µM.
In the case of `CCCCCCNNC(=O)c1ccc(CNC(=O)CCCCCCCCCCC(=O)N[C@H](C(=O)N2C[C@H](O)C[C@H]2C(=O)NCc2ccc(-c3scnc3C)cc2)C(C)(C)C)cc1` [Z13, N^1-(4-(2-Hexylhydrazine-1-carbonyl)benzyl)-N^12-((S)-1-((2S,4R)-4-hydroxy-2-((4-(4-methylthiazol-5-yl)benzyl)carbamoyl)pyrrolidin-1-yl)-3,3-dimethyl-1-oxobutan-2-yl)dodecanediamide], at HDAC8 [2] (6 h), the inhibition at 0.1 µM was 65 ± 5%.
`CCCCCCNNC(=O)c1ccc(CNC(=O)C2CCN(c3ccc4c(c3)C(=O)N(C3CCC(=O)NC3=O)C4=O)CC2)cc1` (stereo not drawn) [Z14, 1-(2-(2,6-Dioxopiperidin-3-yl)-1,3-dioxoisoindolin-5-yl)-N-(4-(2-hexylhydrazine-1-carbonyl)benzyl)piperidine-4-carboxamide]: at HDAC8 [2] (6 h), the inhibition at 0.1 µM came to 34 ± 3%.
Regarding `CCCCCCNNC(=O)c1ccc(CNCC2CCN(c3ccc4c(c3)C(=O)N(C3CCC(=O)NC3=O)C4=O)CC2)cc1` (stereo not drawn) [Z15, 4-((((1-(2-(2,6-Dioxopiperidin-3-yl)-1,3-dioxoisoindolin-5-yl)piperidin-4-yl)methyl)amino)methyl)-N′-hexylbenzohydrazide], the inhibition at 0.1 µM at HDAC8 [2] (6 h) was 25 ± 2%.
Regarding `CCCCCCNNC(=O)c1cccc(NCc2ccc(C(=O)N3CCC(c4ccc(NC5CCC(=O)NC5=O)cc4)CC3)cc2)c1` (stereo not drawn) [Z18, 3-((4-(4-(4-((2,6-Dioxopiperidin-3-yl)amino)phenyl)piperidine-1-carbonyl)benzyl)amino)-N′-hexylbenzohydrazide], the inhibition at 0.1 µM at HDAC8 [2] (6 h) turned out to be 13 ± 4%.

(Values after PMC11345830, “Exploration of Hydrazide-Based HDAC8 PROTACs for the Treatment of Hematological Malignancies and Solid Tumors” (Journal of Medicinal Chemistry, 2024).)
